Test results as given in patent publication US4352885A, “Preparation of a novel NADP linked alcohol-aldehyde/ketone oxidoreductase from thermophilic anaerobic bacteria for analytical and commercial use” (Wisconsin Alumni Research Foundation, priority 1980, dated 1982).

T1: NADP linked alcohol dehydrogenase (alcohol-aldehyde/ketone oxidoreductase) (Thermoanaerobacter brockii, UniProt P14941)
T1 construct: of the T. brockii enzyme preparation with various alcohols and carbonyl compounds; made in house; host or cells: T. brockii itself (native host; partially purified enzyme)
T1 sequence (P14941 1-352): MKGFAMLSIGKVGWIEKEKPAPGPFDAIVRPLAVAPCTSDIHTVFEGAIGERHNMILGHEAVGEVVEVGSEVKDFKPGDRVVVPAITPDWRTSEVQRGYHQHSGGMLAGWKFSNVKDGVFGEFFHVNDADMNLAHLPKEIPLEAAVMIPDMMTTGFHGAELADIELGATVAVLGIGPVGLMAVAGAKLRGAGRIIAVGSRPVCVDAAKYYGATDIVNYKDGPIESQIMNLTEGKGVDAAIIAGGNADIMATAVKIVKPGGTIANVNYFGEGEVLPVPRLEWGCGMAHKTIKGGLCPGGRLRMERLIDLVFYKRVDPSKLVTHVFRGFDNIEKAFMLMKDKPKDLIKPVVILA

T2: NADP linked alcohol dehydrogenase (secondary alcohol dehydrogenase activity) (Thermoanaerobacter brockii, UniProt P14941)
T2 construct: The NADP linked alcohol dehydrogenase derived from T. brockii can be immobilized; made in house; host or cells: T. brockii itself (native host)
T2 sequence (P14941 1-352): T1 sequence (P14941 1-352)

B1: NADP linked alcohol dehydrogenase (alcohol-aldehyde/ketone oxidoreductase) (Thermoanaerobacter brockii) (protein)
chain: T1 sequence (P14941 1-352)
notes: of the T. brockii enzyme preparation with various alcohols and carbonyl compounds; made in house; host or cells: T. brockii itself (native host; partially purified enzyme)
B2: immobilized enzyme system: T. brockii alcohol dehydrogenase immobilized on sepharose 4B-CnBr, packed in a flow cell (protein, UniProt P14941 1-352, looked up)
NADP-dependent isopropanol …: T1 sequence (P14941 1-352)
modifications: immobilized on CNBr-Sepharose 4B

What was measured:
[1] = molecular target: T1, NADP linked alcohol dehydrogenase (alcohol-aldehyde/ketone oxidoreductase); experiment: Specific activity of partially purified NADP linked alcohol dehydrogenase with alcohols and carbonyl compounds (absorbance at 334 nm); type: biochemical, Thermoanaerobium brockii; settings: for Activity V/mg. at 60° C.: saturating substrate (0.2-0.5 M alcohol or ketone, 10 mM acetaldehyde), 0.5 mM NADP or 0.2 mM NADPH, 0.1 M Tris-Cl pH 7.8; for Optimum pH: Tris-Cl buffers, acetaldehyde reduction or sec-butanol oxidation; for Reaction as substrate: tested as substrates; for Activity with the substance as coenzyme: as coenzymes instead of NADP/NADPH
[2] = molecular target: T2, NADP linked alcohol dehydrogenase (secondary alcohol dehydrogenase activity); experiment: Effects of metal ions, complexing agents and thiol reagents on the enzyme; type: biochemical, Thermoanaerobium brockii; settings: for Reactivation of PCMB inhibited enzyme: 5 mM DTT, within a few minutes, 1 mM ZnSO4
Experimental: Metal ions, complexing agents and thiol reagents had the following effects.
Each of the above studies were performed at 40° C.

T. brockii cultures = experiment: Reduction of ketones by T. brockii cultures; type: cell-based, Thermoanaerobium brockii; settings: 0.5% ketone in TYEG medium; 60° C.; 15 hours incubation
Experimental: T. brockii was incubated at 60° C. in anaerobic culture tubes containing the previously described TYEG medium supplemented with 0.5% acetone or butanone. More than 50% of each ketone was converted to the corresponding alcohol after 15 hours incubation. Growth of the organism ceased once the pH fell below 5.0. The reaction is indicated in FIG. 1 when acetone is substituted for glucose to produce the corresponding secondary isopropanol.

[3] = Thermostability and storage stability of the alcohol dehydrogenase; type: physicochemical, Thermoanaerobium brockii
Experimental: The immobilized alcohol dehydrogenase of example 2 was packed in a small flow cell which allowed amperometric measurement of NAPDH concentration, using a glossy carbon and Ag/Cl electrode with 0.8 volt potential difference. A soltuion containing 0.05 mM NADP and varying concentrations of sec. butanol 10-100 micro molar were passed through the cell and gave a signal which depended on the concentration of alcohol. Alternatively, solutions that contained 10 mM NADPH and varying concentrations of acetone produced signals which decreased linearly with increasing concentrations of acetone at 0-200 mM. Potassium phosphate buffer at 500 mM and pH 7.5 was used in these experiments. The immobilized enzyme system for measurement of ketones and alcohols was stable for 2 weeks at room temperature.

[4] = substrate: CCC(C)O; experiment: purified protein, by the assay type; settings: other: substrate concentration giving half-maximal velocity; pH 7.8; 40.0 °C
[5] = substrate: CC=O; experiment: Specific activity of partially purified NADP linked alcohol dehydrogenase with alcohols and carbonyl compounds (absorbance at 334 nm); type: biochemical, Thermoanaerobium brockii; settings: other: substrate concentration giving half-maximal velocity; pH 7.8; 40.0 °C

Molecule	Activity V/mg. at 60° C. [1]	other results
O=C1CC2CCC1C2 (centres unmarked)	4.9 μ Mole/Min./Mg Protein	
2-Cyclohexanone	4.9 μ Mole/Min./Mg Protein	
O[C@H](CS)[C@H](O)CS (racemic) [DTT, dithiothreitol]		Reactivation of PCMB inhibited enzyme ([2]; 40° C.): Complete reversal of the PCMB inhibition
CC1CCCCC1=O (centres unmarked) [2-Methyl Cyclohexanone]	6.0 μ Mole/Min./Mg Protein	
CC1CCCC(=O)C1 (centres unmarked) [3-Methyl Cyclohexanone]	2.0 μ Mole/Min./Mg Protein	
CC1CCC(=O)CC1 [4-Methyl Cyclohexanone]	0.5 μ Mole/Min./Mg Protein	
Oc1cccc2cccnc12 [8-hydroxyquinoline]		Inhibition of activity by complexing agents [2]: did not significantly inhibit activity
C=CC(O)CC (centres unmarked) [CH2CHCH(OH)CH2 CH3]	65.0 μ Mole/Min./Mg Protein	
CC(C)CO [CH3 CH2 (CH3)CH2 OH]	3.1 μ Mole/Min./Mg Protein	
CCC(C)CO (centres unmarked) [CH3 CH2 CH2 (CH3)CH2 OH]	3.0 μ Mole/Min./Mg Protein	
CCCCCO [CH3 CH2 CH2 CH2 CH2 OH]	0.9 μ Mole/Min./Mg Protein	
CCCCO [CH3 CH2 CH2 CH2 OH]	4.1 μ Mole/Min./Mg Protein	
CCCO [CH3 CH2 CH2 OH]	3.6 μ Mole/Min./Mg Protein	
CCC(C)O (centres unmarked) [CH3 CH2 CH(OH)CH3, sec-butanol]	78.0 μ Mole/Min./Mg Protein	Optimum pH [1]: 7.8-9.0
CCO [CH3 CH2 OH]	3.2 μ Mole/Min./Mg Protein	
CC(O)CC(C)O (centres unmarked) [CH3 CH(OH)CH2 CH(OH)CH3]	2.6 μ Mole/Min./Mg Protein	
CC(C)O [CH3 CH(OH)CH3, isopropanol]	59.0 μ Mole/Min./Mg Protein	
CC=O [CH3 CHO, acetaldehyde]	7.8 μ Mole/Min./Mg Protein	Optimum pH [1]: 7.8
CCC(C)=O [CH3 COCH2 CH3, butanone]	7.6 μ Mole/Min./Mg Protein	Ketone converted to the corresponding alcohol (T. brockii cultures): More than 50%
CC(C)=O [CH3 COCH3, acetone]	10.4 μ Mole/Min./Mg Protein	Ketone converted to the corresponding alcohol (T. brockii cultures): More than 50%
CO [CH3 OH]	0 μ Mole/Min./Mg Protein	
[Ca+2].[Cl-].[Cl-] [CaCl2]		Activation or inhibition by metal salts ([2]; 1 mM, 40° C.): no significant activation or inhibition

Molecule	Activity V/mg. at 60° C. [1]	other results
[Cl][Cu][Cl] [CuCl2]		Activation or inhibition by metal salts ([2]; 1 mM, 40° C.): no significant activation or inhibition
O=C1CCCCCC1 [Cycloheptanone]	3.0 μ Mole/Min./Mg Protein	
OC1CCCCC1 [Cyclohexanol]	12.2 μ Mole/Min./Mg Protein	
O=C1CCCCC1 [Cyclohexanone]	6.2 μ Mole/Min./Mg Protein	
O=C1CCCCCCC1 [Cyclooctanone]	0 μ Mole/Min./Mg Protein	
O=C1CCCC1 [Cyclopentanone]	6.0 μ Mole/Min./Mg Protein	
O=C(O)CN(CCN(CC(=O)O)CC(=O)O)CC(=O)O [EDTA, ethylenediamine-tetraacetic acid, reference compound]		Inhibition of activity by complexing agents [2]: did not significantly inhibit activity; Effect on thermostability of the enzyme ([3]; millimolar concentrations): did not decrease thermostability
C[C@H](O)C(=O)O [L-lactic acid]		Reaction as substrate [1]: did not react
CC(=O)C1CC1 [Methyl cyclopropyl ketone]	0.5 μ Mole/Min./Mg Protein	
[Cl-].[Cl-].[Mg+2] [MgCl2]		Activation or inhibition by metal salts ([2]; 1 mM, 40° C.): no significant activation or inhibition
NC(=O)c1ccc[n+]([C@@H]2O[C@H](COP(=O)([O-])OP(=O)(O)OC[C@H]3O[C@@H](n4cnc5c(N)ncnc54)[C@H](O)[C@@H]3O)[C@@H](O)[C@H]2O)c1 [NAD, reference compound]		Activity with the substance as coenzyme [1]: No activity
NC(=O)C1=CN([C@@H]2O[C@H](COP(=O)(O)OP(=O)(O)OC[C@H]3O[C@@H](n4cnc5c(N)ncnc54)[C@H](O)[C@@H]3O)[C@@H](O)[C@H]2O)C=CC1 [NADH, reference compound]		Activity with the substance as coenzyme [1]: No activity
NC(=O)c1ccc[n+]([C@@H]2O[C@H](COP(=O)([O-])OP(=O)(O)OC[C@H]3O[C@@H](n4cnc5c(N)ncnc54)[C@H](OP(=O)(O)O)[C@@H]3O)[C@@H](O)[C@H]2O)c1 [NADP, Nicotinamide adenine dinucleotide phosphate]		Apparent Michaelis constant KM (coenzymes) [1]: in the micromolar range
NC(=O)C1=CN([C@@H]2O[C@H](COP(=O)(O)OP(=O)(O)OC[C@H]3O[C@@H](n4cnc5c(N)ncnc54)[C@H](OP(=O)(O)O)[C@@H]3O)[C@@H](O)[C@H]2O)C=CC1 [NADPH, reference compound]		Apparent Michaelis constant KM (coenzymes) [1]: in the micromolar range
CCN1C(=O)C=CC1=O [NEM, N-ethylmaleimide]		Inactivation of the enzyme ([2]; 1 mM, slow (15 min.), 40° C.): inactivated the enzyme
O=C(O)c1cc[c]([Hg][Cl])cc1 [PCMB, parachloromercuricbenzoate]		Reaction of thiol reagent with the enzyme (inhibition) ([2]; 0.05 mM, 40° C.): reacted instantly
[Cl-].[Cl-].[Zn+2] [ZnCl2]		Activation or inhibition by metal salts ([2]; 1 mM, 40° C.): no significant activation or inhibition
O=S(=O)([O-])[O-].[Zn+2] [ZnSO4]		Reactivation of PCMB inhibited enzyme ([2]; 40° C.): necessary for complete reactivation
OCC(O)CO [glycerol]		Reaction as substrate [1]: did not react
c1cnc2c(c1)ccc1cccnc12 [orthophenanthroline]		inhibition at 2000 µM ([2]; 2 mM, 40° C., read-out: Inhibitory effect on secondary alcohol dehydrogenase activity): 15 to 20%
B1		Km [4]: 500 µM; Km [5]: 150 µM
B2		Time stable ([3]; room temperature, immobilized on sepharose in flow cell): 2 weeks
